The record followed here is ChEMBL document CHEMBL4020811, “JAK2 JH2 Fluorescence Polarization Assay and Crystal Structures for Complexes with Three Small Molecules” (ACS Med Chem Lett, 2017).

This assay deals with Tyrosine-protein kinase JAK2 (Homo sapiens, UniProt O60674). Nature of the assay: Binding affinity to wild type JAK2 JH2 domain (unknown origin) by competitive fluorescence polarization assay. A general note: In fluorescence polarisation assays a small probe gives low polarisation when free and higher when bound to something large.
Sequence of Tyrosine-protein kinase JAK2 (O60674 whole entry, the tested form may be a part): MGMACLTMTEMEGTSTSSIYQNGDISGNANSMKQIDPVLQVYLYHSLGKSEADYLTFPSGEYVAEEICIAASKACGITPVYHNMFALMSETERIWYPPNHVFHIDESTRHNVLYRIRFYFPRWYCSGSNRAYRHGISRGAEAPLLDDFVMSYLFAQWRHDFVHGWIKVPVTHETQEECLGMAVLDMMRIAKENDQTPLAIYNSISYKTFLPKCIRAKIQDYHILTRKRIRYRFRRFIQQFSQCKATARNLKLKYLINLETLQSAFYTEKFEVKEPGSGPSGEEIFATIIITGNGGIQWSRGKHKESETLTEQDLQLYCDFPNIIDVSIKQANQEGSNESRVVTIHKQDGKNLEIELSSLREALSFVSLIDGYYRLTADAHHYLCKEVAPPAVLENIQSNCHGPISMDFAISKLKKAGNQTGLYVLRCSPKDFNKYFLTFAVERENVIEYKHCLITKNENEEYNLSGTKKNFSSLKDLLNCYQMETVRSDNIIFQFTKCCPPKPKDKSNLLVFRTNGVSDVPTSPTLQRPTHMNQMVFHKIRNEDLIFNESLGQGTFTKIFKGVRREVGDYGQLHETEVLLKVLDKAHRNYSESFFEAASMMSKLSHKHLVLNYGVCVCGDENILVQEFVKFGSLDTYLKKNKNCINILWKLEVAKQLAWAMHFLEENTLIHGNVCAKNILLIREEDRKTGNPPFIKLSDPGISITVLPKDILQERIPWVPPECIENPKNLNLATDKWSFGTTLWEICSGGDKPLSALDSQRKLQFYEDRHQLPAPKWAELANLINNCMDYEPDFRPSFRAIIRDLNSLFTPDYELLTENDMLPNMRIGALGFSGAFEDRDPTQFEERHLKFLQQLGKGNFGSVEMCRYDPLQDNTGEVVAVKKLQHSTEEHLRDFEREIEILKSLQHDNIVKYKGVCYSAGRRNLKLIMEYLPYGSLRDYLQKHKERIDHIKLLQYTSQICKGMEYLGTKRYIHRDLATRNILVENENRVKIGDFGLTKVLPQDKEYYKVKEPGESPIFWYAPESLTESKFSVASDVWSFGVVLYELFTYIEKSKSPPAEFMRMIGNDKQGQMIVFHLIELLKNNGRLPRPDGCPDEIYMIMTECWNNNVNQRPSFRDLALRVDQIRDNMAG

Turning to `CN(Cc1ccc(Nc2nc(N)n(C(=O)c3c(F)cccc3F)n2)cc1)C(=S)Nc1ccc2c(c1)C(=O)OC21c2ccc(O)cc2Oc2cc(O)ccc21`, the Kd (usually the constant that tells how readily two partners part at equilibrium) turned out to be 0.205 µM.

Turning to `N#Cc1ccc(Nc2nc(N)cc(-n3ccc(CO)n3)n2)cc1`, the Kd came to 57.3 µM. In the case of `N#Cc1ccc(Nc2nc(N)nc(-c3ccc(CO)o3)n2)cc1` it was 122 µM; in that of `CS(=O)(=O)NCc1cn(-c2nc(N)nc(Nc3ccc(C#N)cc3)n2)nn1`, 106 µM; in that of `Cc1cc(C)n2c1C=C1C=CC(CCC(=O)NCCNC(=O)O[C@H]3[C@@H](O)[C@H](n4cnc5c(N)ncnc54)O[C@@H]3COP(=O)(O)OP(=O)(O)OP(=O)(O)O)=[N+]1[B-]2(F)F`, 7 µM. As for `Nc1nc(Nc2ccc(C(=O)NCCCCCNC(=S)Nc3ccc4c(c3)C(=O)OC43c4ccc(O)cc4Oc4cc(O)ccc43)cc2)nn1C(=O)c1c(F)cccc1F`, the figure is 0.227 µM.
